Consider 91 compounds from PubChem BioAssay AID434954 (Broad Institute, 2010).

The structures appear in SMILES notation. The source made the active and inactive calls.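 The calls were made as follows: active = IC50 at or below a set limit above the highest tested dose; inconclusive = flat curve with 30 to 70% inhibition, or poor fit; inactive = the rest.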

The target of this experiment is Glycogen synthase kinase-3 beta (Homo sapiens) (UniProt P49841). The experiment is described as follows: GSK3beta kinase inhibitor potency, dose response, biochemical, luminescence, cell-free homogeneous, retest (AID 434954). Particulars: recombinant GSK3beta, ADP-Glo luminescence, 60 min. Background: ADP-Glo first removes unused ATP, then detects ADP through luciferase.
Sequence of Glycogen synthase kinase-3 beta (Homo sapiens) (P49841 whole entry, looked up): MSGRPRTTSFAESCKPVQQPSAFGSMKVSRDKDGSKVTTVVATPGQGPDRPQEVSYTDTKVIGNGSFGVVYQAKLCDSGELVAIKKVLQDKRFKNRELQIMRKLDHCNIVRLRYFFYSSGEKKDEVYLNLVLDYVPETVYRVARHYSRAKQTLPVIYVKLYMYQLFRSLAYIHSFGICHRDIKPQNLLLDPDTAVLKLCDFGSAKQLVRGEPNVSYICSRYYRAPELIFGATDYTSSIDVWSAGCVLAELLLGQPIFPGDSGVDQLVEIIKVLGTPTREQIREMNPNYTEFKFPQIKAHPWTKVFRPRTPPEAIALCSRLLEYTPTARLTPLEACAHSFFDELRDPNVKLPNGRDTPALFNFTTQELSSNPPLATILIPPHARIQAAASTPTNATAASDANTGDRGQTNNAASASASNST
As a reminder, the IC50 is the point on the concentration scale where inhibition reaches its midpoint. In the case of `CCCCOC(=O)C1=C(C)Nc2ncnn2C1c1cc(OC)c(OC)cc1OC` (stereo unspecified), the IC50 was > 30 µM (inactive).
For `Nc1ncnc2c1ncn2C1OC(COP(=O)(O)O)C(O)C1O` (stereo unspecified) the value was > 30 µM (inactive); for `CC1=C(C(=O)OC(C)C)C(c2c[nH]c3ccccc23)n2ncnc2N1` (stereo unspecified), 1.81 µM.
For `CCc1ccc(/C=N/Nc2ncnc3nc[nH]c23)cc1` the value was 26.6 µM.
Regarding `O=C1CCCC2=C1C(c1cccs1)n1nc(SCc3ccccc3)nc1N2` (stereo unspecified), the IC50 was > 30 µM (inactive).
Regarding `Clc1ccc(/C=N/Nc2ncnc3nc[nH]c23)cc1`, the half-inhibitory concentration (IC50) was 20.4 µM.
For `O=c1[nH]c(=O)n(Cc2ccc(F)cc2)c(O)c1C=NCCN1CCCCC1` the value was > 30 µM (inactive).
Take `CCOC(=O)C1=C(C)Nc2ncnn2C1c1cc(Br)ccc1F` (stereo unspecified): the half-inhibitory concentration (IC50) is 24 µM.
As for `Cc1c(C#N)c(O)[nH]c(=O)c1N=Nc1ccc(Br)cc1C(=O)O`, the IC50 is > 30 µM (inactive).
In the case of `N#CCCn1cc(/C=N/O)c(-c2ccc(-c3ccccc3)cc2)n1`, the IC50 is > 30 µM (inactive).
For `COc1cc(-c2[nH]nc3c2C(c2ccco2)C(C#N)=C(N)O3)cc(OC)c1OC` (stereo unspecified) the value was 8.59 µM.
Under `COCCOC(=O)C1=C(C)Nc2ncnn2C1c1ccccc1` (stereo unspecified) stands > 30 µM (inactive); under `COc1ccc(-c2nn(-c3ccccc3)cc2/C=N/N2C(=O)CSC2=S)cc1`, > 30 µM (inactive).
In the case of `COc1ccc(-c2nn(-c3ccccc3)cc2/C=N/Nc2ccc3ccccc3n2)cc1OC`, the IC50 is > 30 µM (inactive).
For `CCOc1cc(C2C3=C(CC(C)(C)CC3=O)Nc3n[nH]c(C)c32)ccc1O` (stereo unspecified) the value was 3.32 µM.
Under `Fc1ccccc1/C=N/Nc1ncnc2nc[nH]c12` stands 11.2 µM.
As to `N=C(N)N=Nc1c(O)[nH]c2ccc(Br)cc12`, the IC50 is 31.4 µM.
For `CCOC(=O)c1sc2c(c1C)C(c1cccs1)C1=C(CCCC1=O)N2` (stereo unspecified) the value was > 30 µM (inactive); for `O=C(O)c1ccccc1N/N=C\c1ccnc2ccccc12`, > 30 µM (inactive).
For `O=[N+]([O-])c1cc(/C=N\O)ccc1Oc1ccc(F)cc1` the value was 23 µM.
For `CCOc1ccc(/C=N/Nc2ccccn2)cc1OC` the value was > 30 µM (inactive); for `Cc1c(C#N)c(O)[nH]c(=O)c1N=Nc1ccc(S(N)(=O)=O)cc1`, 0.917 µM.
Turning to `Oc1ccc(/C=N/Nc2ccc(C(F)(F)F)cn2)cc1O`, the half-inhibitory concentration (IC50) was 16.1 µM.
Turning to `CCCCCCn1c(O)c(C=NCCCn2ccnc2)c(=O)[nH]c1=O`, the IC50 was 14.3 µM.
Under `O=C(O)c1ccc(N/N=C/c2ccc(-c3cccc(Cl)c3)o2)cc1` stands > 30 µM (inactive).
As to `O=c1[nH]c(=O)n(CCc2ccc(F)cc2)c(O)c1/C=N/N1CCCCC1`, the IC50 was > 30 µM (inactive).
For `CCc1ccc(C2NC(=S)NC3=C2C(=O)CC(C)(C)C3)cc1` (stereo unspecified) the value was > 30 µM (inactive); for `CCOC(=O)C1=C(C(F)(F)F)Nc2ncnn2C1c1cc(OC)ccc1OC` (stereo unspecified), > 30 µM (inactive); for `Cc1ccc(C2C3=C(CC(C)(C)CC3=O)Nc3[nH]c(=S)[nH]c(=O)c32)cc1` (stereo unspecified), > 30 µM (inactive).
In the case of `Cc1ccc(C2C3=C(CC(C)(C)CC3=O)Nc3onc(C)c32)cc1` (stereo unspecified), the IC50 was > 30 µM (inactive).
`C/C(=N\Nc1nccnc1Cl)c1ccc(Br)cc1`: the IC50 was > 30 µM (inactive).
For `C=CCOc1ccc(/C=N/Nc2ccccn2)cc1OC` the value was > 30 µM (inactive); for `CC1=C(C(=O)Nc2ccccc2F)C(c2ccsc2)C2=C(CC(C)(C)CC2=O)N1` (stereo unspecified), > 30 µM (inactive); for `CCCCOC(=O)C1=C(C)Nc2ncnn2C1c1cccc(OC)c1OC` (stereo unspecified), 4.25 µM.
For `Oc1ccccc1/C=N/Nc1nn[nH]n1` the value was > 30 µM (inactive); for `COc1cc(/C=N/NC(=O)c2ccc(O)cc2)ccc1Oc1ccc([N+](=O)[O-])cn1`, > 30 µM (inactive); for `O=C(O)c1ccc(/C=N/Nc2ccc(C(F)(F)F)cn2)cc1`, 20.4 µM.
Under `N#CC(=C=[N-])c1nc2ccccc2nc1-[n+]1cccc(NC(=O)c2ccccc2)c1` stands > 30 µM (inactive); under `Cc1ccc(-c2nn(-c3ccccc3)cc2/C=N/O)cc1`, 0.565 µM; under `CSc1nc2c(c(=O)[nH]1)C(c1cccs1)C1=C(CCCC1=O)N2` (stereo unspecified), > 30 µM (inactive).
As to `Nc1nc(F)nc2c1ncn2[C@@H]1O[C@H](CO)[C@@H](O)[C@@H]1O`, the IC50 is > 30 µM (inactive).
Under `CC1=C(C(=O)OCc2ccccc2)C(c2ccccc2OC(F)F)NC(=O)N1` (stereo unspecified) stands 4.4 µM; under `CC1=C(C#N)C(c2ccc(O)cc2)C2=C(CC(C)(C)CC2=O)N1` (stereo unspecified), > 30 µM (inactive).
Under `CC1(C)CC(=O)C2=C(C1)NC1=C(C(=O)c3ccccc31)C2c1ccc(O)cc1` (stereo unspecified) stands > 30 µM (inactive); under `CCOc1cc(C2Nc3ccccc3NC3=C2C(=O)CC(C)(C)C3)ccc1O` (stereo unspecified), > 30 µM (inactive).
`O=C(O)CC1S/C(=N/N=C/c2ccc(-c3ccc(Cl)c([N+](=O)[O-])c3)o2)NC1=O` (stereo unspecified): the IC50 was > 30 µM (inactive).
Under `Cc1[nH]nc2c1C(c1ccc(F)cc1)C1=C(CC(C)(C)CC1=O)N2` (stereo unspecified) stands 3.93 µM; under `CCOc1cc(C2C(C(=O)N3CCCCC3)=C(C)NC3=C2C(=O)CC(C)(C)C3)ccc1O` (stereo unspecified), > 30 µM (inactive).
In the case of `CCc1ccccc1N1C(=O)CC(N2CCc3ccccc32)C1=O` (stereo unspecified), the IC50 was > 30 µM (inactive).
For `CN=C(C)/C(C(=O)OC)=C(/O)c1ccc(Cl)cc1Cl` the value was > 30 µM (inactive).
For `COc1cc(C2C(C(=O)c3cccs3)=C(O)C(=O)N2CCN2CCOCC2)ccc1OCCC(C)C` (stereo unspecified) the value was > 30 µM (inactive); for `COc1ccc(-c2nn(-c3ccccc3)cc2/C=N/Nc2ccc(Cl)c(C(=O)O)c2)cc1OC`, > 30 µM (inactive); for `CCOC(=O)C1=C(C)Nc2ncnn2C1/C=C/c1ccccc1` (stereo unspecified), > 30 µM (inactive).
`CCCC1=C(C(=O)OCC)C(c2ccco2)n2ncnc2N1` (stereo unspecified): the half-inhibitory concentration (IC50) is 17.4 µM.
For `Cc1[nH]nc2c1C(c1ccc(N(C)C)cc1)C1=C(CC(C)(C)CC1=O)N2` (stereo unspecified), the half-maximal inhibitory concentration (IC50) is 28 µM.
Regarding `COc1cc(/C=N/Nc2ccc(C(F)(F)F)cn2)ccc1O`, the IC50 was 10.1 µM.
Under `COc1ccc(/C=N/Nc2ccc([N+](=O)[O-])cc2)cc1O` stands > 30 µM (inactive); under `COc1cccc(C2C(C#N)=C(C)NC3=C2C(=O)CC(C)(C)C3)c1` (stereo unspecified), > 30 µM (inactive).
For `Cc1[nH]nc2c1C(c1cccs1)C1=C(CC(C)(C)CC1=O)N2` (stereo unspecified) the value was 1.36 µM; for `O/N=C/c1cn(-c2ccccc2)nc1-c1ccccc1`, 26 µM; for `NS(=O)(=O)c1ccc(N=Nc2c(O)[nH]c3ccc(Br)cc23)cc1`, > 30 µM (inactive).
For `CSc1nsc(/C=C/Nc2ccc(Cl)cc2)c1C#N`, the IC50 is > 30 µM (inactive).
Under `Cc1cc(-c2[nH]nc3c2C(c2cccc(O)c2)C(C#N)=C(N)O3)c(C)s1` (stereo unspecified) stands 25.4 µM; under `CCCC1=C(C(=O)OCC)C(c2cccs2)n2ncnc2N1` (stereo unspecified), 23.2 µM.
As for `CC1=C(C(N)=O)C(c2sccc2C)n2nnnc2N1` (stereo unspecified), the IC50 is > 30 µM (inactive).
For `O=c1[nH]c(N/N=C/c2ccccc2)nc2ccccc12`, the IC50 was > 30 µM (inactive).
In the case of `Cc1[nH]nc2c1C(c1cccc(O)c1)C1=C(CC(C)(C)CC1=O)N2` (stereo unspecified), the half-inhibitory concentration (IC50) is 0.421 µM.
For `O=C(O)c1ccc(N=Nc2c(O)[nH]c3cc(Cl)ccc23)cc1` the value was 19.1 µM; for `CC1=C(C(=O)OCC2CCCO2)C(c2ccc(O)cc2)NC(=O)N1` (stereo unspecified), > 30 µM (inactive); for `CCOC(=O)C1=C(C)Nc2ncnn2C1c1ccc2c(c1)OCO2` (stereo unspecified), > 30 µM (inactive).
For `COC(=O)c1ccc(N2C(=O)CC(N3CCN(C(=O)c4ccco4)CC3)C2=O)cc1` (stereo unspecified), the IC50 was > 30 µM (inactive).
Under `Cc1noc2c1C(c1ccc(N(C)C)cc1)C1=C(CC(C)(C)CC1=O)N2` (stereo unspecified) stands > 30 µM (inactive).
As for `COc1cc(/C=N/Nc2nc(Nc3ccccc3)nc(N3CCCCC3)n2)ccc1OCC(=O)O`, the IC50 is > 30 µM (inactive).
For `COc1cc(C2C(C#N)=C(C)NC3=C2C(=O)CC(C)(C)C3)ccc1O` (stereo unspecified) the value was > 30 µM (inactive).
On to `CC1=C(C(=O)N2CCCCC2)C(c2cccs2)C2=C(CCCC2=O)N1` (stereo unspecified), for which the IC50 is > 30 µM (inactive).
With `Cc1ccc(C2C3=C(CC(C)(C)CC3=O)Nc3n[nH]c(C)c32)cc1` (stereo unspecified), the concentration for half-maximal inhibition (IC50) was 9.26 µM.
Consider `O=C1C(=O)N(c2ccccn2)C(c2ccc(Br)cc2)/C1=C(/O)c1ccc(Br)cc1` (stereo unspecified), for which the IC50 was > 30 µM (inactive).
Turning to `COc1cccc(C2Nc3ccccc3NC3=C2C(=O)CC(C)(C)C3)c1` (stereo unspecified), the IC50 was > 30 µM (inactive).
For the compound `CC(C)Sc1nc2c(c(=O)[nH]1)C(c1cccs1)C1=C(CC(C)(C)CC1=O)N2` (stereo unspecified), the IC50 was > 30 µM (inactive).
For `CCOC(=O)C1=C(C)Nc2ncnn2C1c1cccnc1` (stereo unspecified) the value was > 30 µM (inactive); for `CCOC(=O)C1=C(C)Nc2ncnn2C1c1cc(OC)ccc1OC` (stereo unspecified), > 30 µM (inactive); for `Cc1[nH]nc2c1C(c1cccs1)C1=C(CCCC1=O)N2` (stereo unspecified), 10.6 µM.
With `Fc1cccc(/C=N/Nc2ncnc3nc[nH]c23)c1`, the half-maximal inhibitory concentration (IC50) is 11.9 µM.
For `CC(C)n1c(O)c(C=NCc2cccnc2)c(=O)[nH]c1=S`, the IC50 is > 30 µM (inactive).
Consider `C=CCOC(=O)C1=C(C)Nc2ncnn2C1c1cccs1` (stereo unspecified), for which the IC50 is > 30 µM (inactive).
As for `CSc1nc2n(n1)C(c1cccs1)C1=C(CCCC1=O)N2` (stereo unspecified), the IC50 was > 30 µM (inactive).
Under `Cc1ccsc1/C=N/Nc1ncnc2nc[nH]c12` stands 9 µM.
With `C(=N\Nc1nccc(-c2cccnc2)n1)/c1ccccc1`, the concentration for half-maximal inhibition (IC50) is 16.9 µM.
Under `Cc1cc(=O)[nH]c(N/N=C/c2ccc(-c3ccc([N+](=O)[O-])cc3)o2)n1` stands > 30 µM (inactive).
Under `O=C1CC(SC(=Nc2ccccc2)Nc2ccccc2)C(=O)N1c1cccc2ccccc12` (stereo unspecified) stands > 30 µM (inactive); under `CC1(C)CC(=O)C2=C(C1)Nc1[nH]c(=S)[nH]c(=O)c1C2c1ccccc1` (stereo unspecified), > 30 µM (inactive).
